According to ChEMBL document CHEMBL1134254, “Syntheses of certain 3-aryl-2-propenoates and evaluation of their cytotoxicity” (Bioorg Med Chem Lett, 2001):
Converted amounts (≈) assume the structure as drawn.

Columns and labels:
[1] = system: HCT-116; assay: cells; conditions: Homo sapiens
Description: Inhibitory concentration against HCT 116 human colon cancer cell line

[2] = system: B16; assay: Inhibitory concentration against B16 murine melanoma cell line; conditions: Mus musculus
[3] = system: A-431; assay: cells; conditions: Homo sapiens
Description: Inhibitory concentration required against A 431 human epidermoid carcinoma cell line

[4] = system: LOX IMVI; assay: Inhibitory concentration required against LOX-IMVI melanoma cell line; conditions: Homo sapiens
[5] = system: HCC 2998; assay: Inhibitory concentration required against HCC2998 colon cancer cell line; conditions: Homo sapiens
[6] = system: SW-620; assay: Inhibitory concentration required against SW620 colon cancer cell line; conditions: Homo sapiens
[7] = system: ACHN; assay: Inhibitory concentration required against ACHN renal cancer cell line; conditions: Homo sapiens
[8] = system: PC-3; assay: Inhibitory concentration required against PC-3 prostate cancer cell line; conditions: Homo sapiens
[9] = system: SNB-19; assay: Inhibitory concentration required against SNB19 CNS cancer cell line; format: functional, cell-based; conditions: Homo sapiens
[10] = system: NCI-H23; assay: Inhibitory concentration required against NCI-H23 lung cancer cell line; conditions: Homo sapiens
[11] = system: DLD-1; assay: Inhibitory concentration required against DLD-1 colon cancer cell line; conditions: Homo sapiens
[12] = system: UACC-62; assay: Inhibitory concentration required against UACC62 melanoma cell line; conditions: Homo sapiens
[13] = system: HCT-15; assay: Inhibitory concentration required against HCT 15 colon cancer cell line; conditions: Homo sapiens
[14] = system: HT-29; assay: Inhibitory concentration required against HT 29 colon cancer cell line; conditions: Homo sapiens
[15] = system: MCF7; assay: Inhibitory concentration required against MCF-7 breast cancer cell line; format: functional, cell-based; conditions: Homo sapiens
[16] = system: A549; assay: cells; conditions: Homo sapiens
Description: Inhibitory concentration required against A 549 lung cancer cell line

[17] = system: COLO 205; assay: cells; conditions: Homo sapiens
Description: Inhibitory concentration required against COLO 205 colon cancer cell line

[18] = system: MDA-MB-231; assay: cells; conditions: Homo sapiens
Description: Inhibitory concentration required against MDA-MB-231 breast cancer cell line

IC50 [1] [µg/mL] | IC50 [2] [µg/mL] | IC50 [3] [µg/mL] | SMILES | further results
27.5 (≈ 132 µM) | 25.9 (≈ 124 µM) | > 30 | COC(=O)/C=C/c1ccc(OC)c(O)c1 | 
0.65 (≈ 2 µM) | 0.18 (≈ 0.555 µM) | 0.87 (≈ 2.68 µM) | COC(=O)/C=C/c1cc(O)c2c(c1O)C(=O)c1ccccc1C2=O | IC50 [4]: 0.09 µg/mL (≈ 0.278 µM); IC50 [5]: 0.95 µg/mL (≈ 2.93 µM); IC50 [6]: 0.45 µg/mL (≈ 1.39 µM); IC50 [7]: 0.42 µg/mL (≈ 1.3 µM); IC50 [8]: 2.72 µg/mL (≈ 8.39 µM); IC50 [9]: 0.69 µg/mL (≈ 2.13 µM); IC50 [10]: 0.39 µg/mL (≈ 1.2 µM); IC50 [11]: 0.89 µg/mL (≈ 2.74 µM); IC50 [12]: 0.11 µg/mL (≈ 0.339 µM); IC50 [13]: 0.66 µg/mL (≈ 2.04 µM); IC50 [14]: 0.55 µg/mL (≈ 1.7 µM); IC50 [15]: 0.46 µg/mL (≈ 1.42 µM); IC50 [16]: 1.13 µg/mL (≈ 3.48 µM); IC50 [17]: 0.73 µg/mL (≈ 2.25 µM); IC50 [18]: 0.74 µg/mL (≈ 2.28 µM)
2.12 (≈ 9.54 µM) | 2.46 (≈ 11.1 µM) | 1.89 (≈ 8.5 µM) | CCCOC(=O)/C=C/c1ccc(O)c(O)c1 | 
> 30 | > 30 | > 30 | CCOC(=O)/C=C/c1cc(OC)c2c(c1OC)C(=O)c1ccccc1C2=O | 
4.26 (≈ 16.7 µM) | 4.23 (≈ 16.6 µM) | 5 (≈ 19.6 µM) | O=C(/C=C/c1ccc(O)c(O)c1)Nc1ccccc1 | 
> 30 | > 30 | > 30 | COC(=O)/C=C/c1cc(OC)c2c(c1OC)C(=O)c1ccccc1C2=O | 
> 30 | > 30 | > 30 | COC(=O)/C=C/c1cc(OC)ccc1OC | 
> 30 | > 30 | > 30 | O=C/C=C/c1ccc(O)c(O)c1 [CAFFEOYL ALDEHYDE] | 
> 30 | > 30 | > 30 | O=C1c2ccccc2C(=O)c2c(O)ccc(O)c21 [QUINIZARIN] | 

Continued, compound first:

SMILES | IC50 [1] [µg/mL] | IC50 [2] [µg/mL] | IC50 [3] [µg/mL] | further results
COC(=O)/C=C/c1ccc2c(c1)OCO2 | > 30 | > 30 | > 30 | 
COC(=O)CCc1cc(O)ccc1O | 4.59 (≈ 23.4 µM) | 4.43 (≈ 22.6 µM) | 5 (≈ 25.5 µM) | 
COC(=O)/C=C/c1cc(O)ccc1O | 0.17 (≈ 0.875 µM) | 0.12 (≈ 0.618 µM) | 0.15 (≈ 0.772 µM) | IC50 [4]: 0.28 µg/mL (≈ 1.44 µM); IC50 [5]: 5.22 µg/mL (≈ 26.9 µM); IC50 [6]: 0.39 µg/mL (≈ 2.01 µM); IC50 [7]: 0.73 µg/mL (≈ 3.76 µM); IC50 [8]: 0.42 µg/mL (≈ 2.16 µM); IC50 [9]: 2.59 µg/mL (≈ 13.3 µM); IC50 [10]: 0.93 µg/mL (≈ 4.79 µM); IC50 [11]: 0.68 µg/mL (≈ 3.5 µM); IC50 [12]: 0.56 µg/mL (≈ 2.88 µM); IC50 [13]: 0.27 µg/mL (≈ 1.39 µM); IC50 [14]: 1.1 µg/mL (≈ 5.66 µM); IC50 [15]: 0.37 µg/mL (≈ 1.91 µM); IC50 [16]: 7.81 µg/mL (≈ 40.2 µM); IC50 [17]: 0.97 µg/mL (≈ 5 µM); IC50 [18]: 0.82 µg/mL (≈ 4.22 µM)
CCOC(=O)/C=C/c1cc(O)c2c(c1O)C(=O)c1ccccc1C2=O | 0.71 (≈ 2.1 µM) | 0.32 (≈ 0.946 µM) | 0.91 (≈ 2.69 µM) | 
COC(=O)/C=C/c1ccc(OC)c(OC)c1 | > 30 | > 30 | > 30 | 
COC(=O)/C=C\c1cc(O)ccc1O | > 30 | 30.1 (≈ 155 µM) | > 30 | 
COc1cccc2c1C(=O)c1c(O)c3c(c(O)c1C2=O)C[C@@](O)(C(=O)CO)C[C@@H]3O[C@H]1C[C@H](N)[C@H](O)[C@H](C)O1 [DOXORUBICIN] |  |  |  | IC50 [9]: 0.29 µg/mL (≈ 0.534 µM)
CCOC(=O)/C=C/c1ccc(O)c(O)c1 [ETHYL CAFFEATE] | 1.99 (≈ 9.56 µM) | 1.75 (≈ 8.4 µM) | 1.81 (≈ 8.69 µM) | 
COC(=O)/C=C/c1ccc(O)c(O)c1 [METHYLCAFFEATE] | 3.01 (≈ 15.5 µM) | 2.96 (≈ 15.2 µM) | 1.79 (≈ 9.22 µM) | 
